Test results reported in patent publication US12077503B2, “Substituted cyclic amides and their use as herbicides” (FMC CORPORATION, priority 2015, dated 2024).

Tests used:
Type in all cases: in vivo
[1] = system: redroot pigweed (Amaranthus retroflexus); assay: Test G Pre-Emergence Protocol; conditions: Amaranthus retroflexus, pre-emergence, 312 h, evaluated after 13 days; for pest or weed control at 15.625 g/ha: 15.625 g ai/ha; for pest or weed control at 15.625 g/ha / pest or weed control at 250 g/ha: read-out: Pigweed, Redroot damage rating (100=total damage to plant; 0=no damage to plant); for pest or weed control at 62.5 g/ha: 62.5 g ai/ha, 100=total damage to plant, 0=no damage to plant, read-out: plant damage rating, Pigweed, Redroot; for pest or weed control at 250 g/ha: 250 g ai/ha
Method in brief: (§1)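 Pre-emergence spray, 15.625/62.5/250 g/ha, vehicle acetone:water 50:50 + 0.5% Tween 20, applied 1 d after sowing. Glasshouse 24/16° C, 14 h light, 65% RH, watered twice daily. Visual damage rating at 13 d, 0–100 scale.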

[2] = system: barnyardgrass (Echinochloa crus-galli); assay: Test G Pre-Emergence Protocol; conditions: Echinochloa crus-galli, pre-emergence, 312 h, evaluated after 13 days; for pest or weed control at 15.625 g/ha: 15.625 g ai/ha, read-out: Barnyard grass damage rating (100=total damage to plant; 0=no damage to plant); for pest or weed control at 62.5 g/ha: 62.5 g ai/ha, 100=total damage to plant, 0=no damage to plant, read-out: plant damage rating, Barnyardgrass; for pest or weed control at 250 g/ha: 250 g ai/ha, read-out: Barnyardgrass damage rating (100=total damage to plant; 0=no damage to plant)
Method in brief: as §1

[3] = system: ivy-leaved morning glory (Ipomoea hederacea); assay: Test G Pre-Emergence Protocol; conditions: Ipomoea, pre-emergence, 312 h, evaluated after 13 days; for pest or weed control at 62.5 g/ha: 62.5 g ai/ha, 100=total damage to plant, 0=no damage to plant, read-out: plant damage rating, Morningglory, Ivy-leaved; for pest or weed control at 250 g/ha: 250 g ai/ha, read-out: Morningglory, Ivy-leaved damage rating (100=total damage to plant; 0=no damage to plant)
Method in brief: as §1

[4] = system: giant foxtail (Setaria faberi); assay: Test G Pre-Emergence Protocol; conditions: Setaria faberi, pre-emergence, 312 h, evaluated after 13 days; for pest or weed control at 15.625 g/ha: 15.625 g ai/ha; for pest or weed control at 15.625 g/ha / pest or weed control at 250 g/ha: read-out: Foxtail, Giant damage rating (100=total damage to plant; 0=no damage to plant); for pest or weed control at 62.5 g/ha: 62.5 g ai/ha, 100=total damage to plant, 0=no damage to plant, read-out: plant damage rating, Foxtail, Giant; for pest or weed control at 250 g/ha: 250 g ai/ha
Method in brief: as §1

[5] = system: velvetleaf (Abutilon theophrasti); assay: Test G Pre-Emergence Protocol; conditions: Abutilon theophrasti, pre-emergence, 312 h, evaluated after 13 days; for pest or weed control at 15.625 g/ha: 15.625 g ai/ha; for pest or weed control at 15.625 g/ha / pest or weed control at 250 g/ha: read-out: Velvetleaf damage rating (100=total damage to plant; 0=no damage to plant); for pest or weed control at 62.5 g/ha: 62.5 g ai/ha, 100=total damage to plant, 0=no damage to plant, read-out: plant damage rating, Velvetleaf; for pest or weed control at 250 g/ha: 250 g ai/ha
Method in brief: as §1

[6] = system: corn (Zea mays); assay: Test G Pre-Emergence Protocol; conditions: Zea mays, pre-emergence, 312 h, evaluated after 13 days; for plant injury at 15.625 g/ha: 15.625 g ai/ha; for plant injury at 15.625 g/ha / plant injury at 250 g/ha: read-out: Corn damage rating (100=total damage to plant; 0=no damage to plant); for plant injury at 62.5 g/ha: 62.5 g ai/ha, 100=total damage to plant, 0=no damage to plant, read-out: plant damage rating, Corn; for plant injury at 250 g/ha: 250 g ai/ha
Method in brief: as §1

[7] = system: redroot pigweed (Amaranthus retroflexus); assay: Test G Post-Emergence Protocol; conditions: Amaranthus retroflexus, post-emergence, 312 h; for pest or weed control at 15.625 g/ha: 15.625 g ai/ha, evaluated after 13 days (100=total damage to plant; 0=no damage to plant), read-out: Pigweed, Redroot damage rating; for pest or weed control at 62.5 g/ha: 62.5 g ai/ha, read-out: Pigweed, Redroot damage rating (100=total damage to plant; 0=no damage to plant); for pest or weed control at 62.5 g/ha / pest or weed control at 250 g/ha: evaluated after 13 days; for pest or weed control at 250 g/ha: 250 g ai/ha, read-out: damage to plant, Pigweed, Redroot (100=total damage to plant; 0=no damage to plant)
Method in brief: (§2)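 Scores run 0 (no damage) to 100 (total damage) and were taken 13 days after spraying. Plants had been raised in pots for 8 days under glasshouse control (24/16 °C, 14 h photoperiod, 65% humidity) and then treated at 15.625, 62.5 or 250 g/ha.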

[8] = system: barnyardgrass (Echinochloa crus-galli); assay: Test G Post-Emergence Protocol; conditions: Echinochloa crus-galli, post-emergence, 312 h; for pest or weed control at 15.625 g/ha: 15.625 g ai/ha, evaluated after 13 days (100=total damage to plant; 0=no damage to plant), read-out: Barnyardgrass damage rating; for pest or weed control at 62.5 g/ha: 62.5 g ai/ha, read-out: Barnyardgrass damage rating (100=total damage to plant; 0=no damage to plant); for pest or weed control at 62.5 g/ha / pest or weed control at 250 g/ha: evaluated after 13 days; for pest or weed control at 250 g/ha: 250 g ai/ha, read-out: damage to plant, Barnyardgrass (100=total damage to plant; 0=no damage to plant)
Method in brief: as §2

[9] = system: ivy-leaved morning glory (Ipomoea hederacea); assay: Test G Post-Emergence Protocol; conditions: Ipomoea, post-emergence, 312 h; for pest or weed control at 15.625 g/ha: 15.625 g ai/ha, evaluated after 13 days (100=total damage to plant; 0=no damage to plant), read-out: Morningglory, Ivy-leaved damage rating; for pest or weed control at 62.5 g/ha: 62.5 g ai/ha, read-out: Morningglory, Ivy-leaved damage rating (100=total damage to plant; 0=no damage to plant); for pest or weed control at 62.5 g/ha / pest or weed control at 250 g/ha: evaluated after 13 days; for pest or weed control at 250 g/ha: 250 g ai/ha, read-out: damage to plant, Morningglory, Ivy-leaved (100=total damage to plant; 0=no damage to plant)
Method in brief: as §2

[10] = system: giant foxtail (Setaria faberi); assay: Test G Post-Emergence Protocol; conditions: Setaria faberi, post-emergence, 312 h; for pest or weed control at 15.625 g/ha: 15.625 g ai/ha, evaluated after 13 days (100=total damage to plant; 0=no damage to plant), read-out: Foxtail, Giant damage rating; for pest or weed control at 62.5 g/ha: 62.5 g ai/ha, read-out: Foxtail, Giant damage rating (100=total damage to plant; 0=no damage to plant); for pest or weed control at 62.5 g/ha / pest or weed control at 250 g/ha: evaluated after 13 days; for pest or weed control at 250 g/ha: 250 g ai/ha, read-out: damage to plant, Foxtail, Giant (100=total damage to plant; 0=no damage to plant)
Method in brief: as §2

[11] = system: velvetleaf (Abutilon theophrasti); assay: Test G Post-Emergence Protocol; conditions: Abutilon theophrasti, post-emergence, 312 h; for pest or weed control at 15.625 g/ha: 15.625 g ai/ha, evaluated after 13 days (100=total damage to plant; 0=no damage to plant), read-out: Velvetleaf damage rating; for pest or weed control at 62.5 g/ha: 62.5 g ai/ha, read-out: Velvetleaf damage rating (100=total damage to plant; 0=no damage to plant); for pest or weed control at 62.5 g/ha / pest or weed control at 250 g/ha: evaluated after 13 days; for pest or weed control at 250 g/ha: 250 g ai/ha, read-out: damage to plant, Velvetleaf (100=total damage to plant; 0=no damage to plant)
Method in brief: as §2

[12] = system: corn (Zea mays); assay: Test G Post-Emergence Protocol; conditions: Zea mays, post-emergence, 312 h; for plant injury at 15.625 g/ha: 15.625 g ai/ha, evaluated after 13 days (100=total damage to plant; 0=no damage to plant), read-out: Corn damage rating; for plant injury at 62.5 g/ha: 62.5 g ai/ha, read-out: Corn damage rating (100=total damage to plant; 0=no damage to plant); for plant injury at 62.5 g/ha / plant injury at 250 g/ha: evaluated after 13 days; for plant injury at 250 g/ha: 250 g ai/ha, read-out: damage to plant, Corn (100=total damage to plant; 0=no damage to plant)
Method in brief: as §2

Structure (SMILES)	pest or weed control at 15.625 g/ha [1] [%]	pest or weed control at 62.5 g/ha [1] [%]	pest or weed control at 250 g/ha [1] [%]	pest or weed control at 15.625 g/ha [2] [%]	pest or weed control at 62.5 g/ha [2] [%]	pest or weed control at 250 g/ha [2] [%]	pest or weed control at 62.5 g/ha [3] [%]	pest or weed control at 250 g/ha [3] [%]	pest or weed control at 250 g/ha [4] [%]	pest or weed control at 15.625 g/ha [5] [%]	pest or weed control at 62.5 g/ha [5] [%]	pest or weed control at 250 g/ha [5] [%]	plant injury at 15.625 g/ha [6] [%]	plant injury at 62.5 g/ha [6] [%]	plant injury at 250 g/ha [6] [%]	pest or weed control at 15.625 g/ha [7] [%]	pest or weed control at 62.5 g/ha [7] [%]	pest or weed control at 250 g/ha [7] [%]	pest or weed control at 15.625 g/ha [8] [%]	pest or weed control at 62.5 g/ha [8] [%]	also measured
Cc1cc(NC(=O)[C@@H]2C(=O)N(C)C[C@H]2c2ccc(C(F)(F)F)cc2)sn1 (racemic) [Compound 1560]	0	0	0	0	0	10	0	0	10	0	0	0	0	0	10	0	0	20	0	0	pest or weed control at 15.625 g/ha ([3]; 15.625 g ai/ha, read-out: Morning-glory, Ivy-leaved damage rating (100=total damage to plant; 0=no damage to plant)): 0%; pest or weed control at 15.625 g/ha [4]: 0%; pest or weed control at 62.5 g/ha [4]: 0%; pest or weed control at 250 g/ha [8]: 20%; pest or weed control at 15.625 g/ha [9]: 0%; pest or weed control at 62.5 g/ha [9]: 0%; pest or weed control at 250 g/ha [9]: 0%; pest or weed control at 15.625 g/ha [10]: 0%; pest or weed control at 62.5 g/ha [10]: 0%; pest or weed control at 250 g/ha [10]: 20%; pest or weed control at 15.625 g/ha [11]: 0%; pest or weed control at 62.5 g/ha [11]: 0%; pest or weed control at 250 g/ha [11]: 10%; plant injury at 15.625 g/ha [12]: 0%; plant injury at 62.5 g/ha [12]: 0%; plant injury at 250 g/ha [12]: 0%
CN1C[C@@H](c2ccc(C(F)(F)F)cc2)[C@H](C(=O)Nc2ccc(Cl)nn2)C1=O (racemic) [Compound 1561]	0	20	30	30	50	80	0	20	70	0	0	10	10	0	20	0	20	30	0	20	pest or weed control at 15.625 g/ha [4]: 30%; pest or weed control at 62.5 g/ha [4]: 60%; pest or weed control at 250 g/ha [8]: 50%; pest or weed control at 15.625 g/ha [9]: 0%; pest or weed control at 62.5 g/ha [9]: 10%; pest or weed control at 250 g/ha [9]: 60%; pest or weed control at 15.625 g/ha [10]: 0%; pest or weed control at 62.5 g/ha [10]: 10%; pest or weed control at 250 g/ha [10]: 60%; pest or weed control at 15.625 g/ha [11]: 0%; pest or weed control at 62.5 g/ha [11]: 40%; pest or weed control at 250 g/ha [11]: 20%; plant injury at 15.625 g/ha [12]: 0%; plant injury at 62.5 g/ha [12]: 0%; plant injury at 250 g/ha [12]: 50%
CN1C[C@@H](c2ccc(C(F)(F)F)cc2)[C@H](C(=O)Nc2nnc[nH]2)C1=O (racemic) [Compound 1562]	0	0	0	0	0	20	0	0	30	0	0	0	0	0	0	0	10	20	0	0	pest or weed control at 250 g/ha [8]: 20%; pest or weed control at 15.625 g/ha [9]: 0%; pest or weed control at 62.5 g/ha [9]: 0%; pest or weed control at 250 g/ha [9]: 0%; pest or weed control at 15.625 g/ha [10]: 0%; pest or weed control at 62.5 g/ha [10]: 0%; pest or weed control at 250 g/ha [10]: 20%; pest or weed control at 15.625 g/ha [11]: 0%; pest or weed control at 62.5 g/ha [11]: 0%; pest or weed control at 250 g/ha [11]: 0%; plant injury at 15.625 g/ha [12]: 0%; plant injury at 62.5 g/ha [12]: 10%; plant injury at 250 g/ha [12]: 0%
